Assay results taken from patent US8835458B2 (Hanmi Science Co., Ltd, priority 2010, dated 2014).
Where a name gives a salt, the structure may show the parent alone. Read-outs that look alike come from different tables or passages of the source.

What was measured:
[1] = Toxicity to normal cells (SRB); format: cell-based, mouse; details: mouse, Balb/c3t3 fibroblasts (normal cell line), read-out: BalB/C (GI50)
Method in brief: (§1)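 GI50 values come from growth equations comparing treated, untreated and medium-only wells. Fibroblasts (Hs27, Balb/c3t3) got 72 h compound exposure with SRB read-out at 540 nm after TCA fixing. MDA-MB-231 got 120 h with MTS at 490 nm, across 10 μM˜0.1 nM.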

caspase 3/7 = assay: Evaluation of caspase activity (Caspase-Glo 3/7 Assay Kit); format: cell-based; details: MDA-MB-231 cells, 12 hours, compared to untreated MDA-MB-231 cells; 0.5, 1, 5 μM tested
Method: (§2) MDA-MB-231 breast cancer cells (ATCC #HTB-26) were plated in 96-well plates at a density of 1.0 1.5×10^4 cells/well. […] Then, media were removed and the cells were washed two times with PBS at 4° C. The cells were treated with a solution of the analysis samples and media (1:1) in an amount of 140 μL/well using Caspase-GloTM 9 Assay Kit (Cat#. […]; Promega, USA) and Caspase-GloTM 3/7 Assay Kit (Cat#. […]; Promega, USA). After the cells were incubated at 37° C. for 2 hours, luminescence was measured using InfiniteTM M1000 multi reader (Tecan). […] The values were represented as “***” for six fold or more, “**” for 4 fold to below 6 fold, and “*” for 1 fold to below 4 fold, as compared to that of untreated, normal MDA-MB-231 breast cancer cell lines.

caspase 9 = assay: Evaluation of caspase activity (Caspase-Glo 9 Assay Kit); format: cell-based; details: MDA-MB-231 cells, 16 hours, compared to untreated MDA-MB-231 cells; 0.5, 1, 5 μM tested
Method: as §2

[2] = Toxicity to normal cells (SRB); format: cell-based, human; details: human, Hs27 fibroblasts (normal cell line)
Method in brief: as §1

[3] = tested on: MDA-MB-231 breast cancer cell lines; assay: Evaluation of inhibition on cell growth (MTS); format: cell-based
Method in brief: as §1

Balb/c3t3 fibroblasts = assay: Toxicity to normal cells (SRB); format: cell-based, mouse; details: normal cell line, 72 hours, read-out: BalB/C (GI50)
Method in brief: as §1

Hs27 fibroblasts = assay: Toxicity to normal cells (SRB); format: cell-based, human; details: normal cell line, 72 hours
Method in brief: as §1

[4] = Homo sapiens, MDA-MB-231, 120 hours

With `CN[C@@H](C)C(=O)N[C@H](C(=O)N1CCC[C@H]1C(=O)Nc1cc2c(Nc3ccc(Br)cc3F)ncnc2cc1OC)C(C)(C)C.Cl` [Example 9, (S)—N-(4-(4-bromo-2-fluorophenylamino)-7-methoxyquinazolin-6-yl)-1-((S)-3,3-dimethyl-2-((S)-2-(methylamino)propanamido)butanoyl)pyrrolidine-2-carboxamide hydrochloride] the GI50 at 72 h [1] was > 10 µM, the Caspase-3 (caspase 3/7) was “*** (six fold or more)” and the Caspase-9 (caspase 9) was “*** (six fold or more)”. The GI50 at 72 h [2] was > 10 µM and the GI50 [3, 4] was ≤ 0.1 µM.

With `CN[C@@H](C)C(=O)N[C@H](C(=O)N1CCC[C@H]1C(=O)Nc1cc2c(Nc3cccc(Cl)c3F)ncnc2cc1OC)C(C)(C)C.Cl` [Example 7] the Caspase-3 (caspase 3/7) was “*** (six fold or more)” and the Caspase-9 (caspase 9) was “*** (six fold or more)”.

In the case of `CN[C@@H](C)C(=O)N[C@H](C(=O)N1CCC[C@H]1C(=O)Nc1cc2c(Nc3ccc(Oc4ccc(C)nc4)c(Cl)c3)ncnc2cc1OC)C(C)(C)C.Cl` [Example 19, (S)—N-(4-(3-chloro-4-(6-methylpyridin-3-yloxy)phenylamino)-7-methoxyquinazolin-6-yl)-1-((S)-3,3-dimethyl-2-((S)-2-(methylamino)propanamido)butanoyl)pyrrolidine-2-carboxamide hydrochloride], the GI50 at 72 h [1] is reported as > 10 µM, the Caspase-3 (caspase 3/7) is reported as “*** (six fold or more)” and the Caspase-9 (caspase 9) is reported as “*** (six fold or more)”. For the same compound, the GI50 at 72 h [2] was > 10 µM and the GI50 [3, 4] was ≤ 0.1 µM.

For `CN[C@@H](C)C(=O)N[C@H](C(=O)N1CCC[C@H]1C(=O)Nc1cc2c(Nc3ccccc3)ncnc2cc1OC)C(C)(C)C.Cl` [Example 11, (S)—N-(4-phenylamino-7-methoxyquinazolin-6-yl)-1-((S)-3,3-dimethyl-2-((S)-2-(methylamino)propanamido)butanoyl)pyrrolidine-2-carboxamide hydrochloride], the GI50 at 72 h [1] was > 10 µM, the Caspase-3 (caspase 3/7) was “*** (six fold or more)” and the Caspase-9 (caspase 9) was “*** (six fold or more)”. For the same compound, the GI50 at 72 h [2] was > 10 µM and the GI50 [3, 4] was ≤ 0.1 µM.

With `CN[C@@H](C)C(=O)N[C@H](C(=O)N1CCC[C@H]1C(=O)Nc1cc2c(Nc3ccc(F)c(Cl)c3F)ncnc2cc1OC)C(C)(C)C.Cl` [Example 1, (S)—N-(4-(3-chloro-2,4-difluorophenylamino)-7-methoxyquinazolin-6-yl)-1-((S)-3,3-dimethyl-2-((S)-2-(methylamino)propanamido)butanoyl)pyrrolidine-2-carboxamide hydrochloride] the GI50 at 72 h [1] was > 10 µM, the Caspase-3 (caspase 3/7) was “*** (six fold or more)” and the Caspase-9 (caspase 9) was “*** (six fold or more)”. The GI50 at 72 h [2] was > 10 µM and the GI50 [3, 4] was ≤ 0.1 µM.

For `CN[C@@H](C)C(=O)N[C@H](C(=O)N1CCC[C@H]1C(=O)Nc1cc2c(Nc3ccc(F)c(F)c3F)ncnc2cc1OC)C(C)(C)C.Cl` [Example 17, (S)-1-((S)-3,3-dimethyl-2-((S)-2-(methylamino)propanamido)butanoyl)-N-(7-methoxy-4-(2,3,4-trifluorophenylamino)quinazolin-6-yl)pyrrolidine-2-carboxamide hydrochloride], the GI50 at 72 h [1] was > 10 µM, the Caspase-3 (caspase 3/7) was “*** (six fold or more)” and the Caspase-9 (caspase 9) was “*** (six fold or more)”. For the same compound, the GI50 at 72 h [2] was > 10 µM and the GI50 [3, 4] was ≤ 0.1 µM.

In the case of `CN[C@@H](C)C(=O)N[C@H](C(=O)N1CCC[C@H]1C(=O)Nc1cc2c(Nc3cccc(Cl)c3F)ncnc2cc1OCCOC)C(C)(C)C.Cl` [Example 2, (S)—N-(4-(3-chloro-2-fluorophenylamino)-7-(2-methoxyethoxy)quinazolin-6-yl)-1-((S)-3,3-dimethyl-2-((S)-2-(methylamino)propanamido)butanoyl)pyrrolidine-2-carboxamide hydrochloride], the GI50 at 72 h [1] is reported as > 10 µM, the Caspase-3 (caspase 3/7) is reported as “** (4 fold to below 6 fold)” and the Caspase-9 (caspase 9) is reported as “* (1 fold to below 4 fold)”. For the same compound, the GI50 at 72 h [2] was > 10 µM and the GI50 [3, 4] was 0.1 to 1 µM.

With `CN[C@@H](C)C(=O)N[C@H](C(=O)N1CCC[C@H]1C(=O)Nc1cc2c(Nc3ccc(Cl)c(Cl)c3F)ncnc2cc1OC)C(C)(C)C.Cl` [Example 8, (S)—N-(4-(3,4-dichloro-2-fluorophenylamino)-7-methoxyquinazolin-6-yl)-1-((S)-3,3-dimethyl-2-((S)-2-(methylamino)propanamido)butanoyl)pyrrolidine-2-carboxamide hydrochloride] the GI50 at 72 h [1] was > 10 µM, the Caspase-3 (caspase 3/7) was “*** (six fold or more)” and the Caspase-9 (caspase 9) was “*** (six fold or more)”. The GI50 at 72 h [2] was > 10 µM and the GI50 [3, 4] was ≤ 0.1 µM.

With “(S)—N—((S)-1-((S)-2-(4-((4-bromo-2-fluorophenylamino)-6-methoxyquinazolinyl-7-oxy)methyl)piperidine)-1-carbonyl)-1-pyrrolidinyl)-3,3-dimethyloxobutan-2-yl)-2-(methylamino)propanamide hydrochloride [Example 44]” the GI50 (Balb/c3t3 fibroblasts) was > 10 µM, the GI50 (Hs27 fibroblasts) was > 10 µM and the GI50 ([3]; 120 hours) was ≤ 0.1 µM.

For `CN[C@@H](C)C(=O)N[C@H](C(=O)N1CCC[C@H]1C(=O)Nc1cc2c(Nc3ccccc3F)ncnc2cc1OC)C(C)(C)C.Cl` [Example 10, (S)-1-((S)-3,3-dimethyl-2-((S)-2-(methylamino)propanamido)butanoyl)-N-(4-(2-fluorophenylamino)-7-methoxyquinazolin-6-yl)pyrrolidine-2-carboxamide hydrochloride], the GI50 at 72 h [1] was > 10 µM, the Caspase-3 (caspase 3/7) was “*** (six fold or more)” and the Caspase-9 (caspase 9) was “*** (six fold or more)”. The GI50 at 72 h [2] was > 10 µM and the GI50 [3, 4] was ≤ 0.1 µM.

With `CN[C@@H](C)C(=O)N[C@H](C(=O)N1CCC[C@H]1C(=O)Nc1cc2c(NCc3ccccc3)ncnc2cc1OC)C(C)(C)C.Cl` [Example 18, (S)—N-(4-benzylamino-7-methoxyquinazolin-6-yl)-1-((S)-3,3-dimethyl-2-((S)-2-(methylamino)propanamido)butanoyl)pyrrolidine-2-carboxamide hydrochloride] the GI50 at 72 h [1] was > 10 µM, the Caspase-3 (caspase 3/7) was “*** (six fold or more)” and the Caspase-9 (caspase 9) was “*** (six fold or more)”. For the same compound, the GI50 at 72 h [2] was > 10 µM and the GI50 [3, 4] was ≤ 0.1 µM.

With `CN[C@@H](C)C(=O)N[C@H](C(=O)N1CCC[C@H]1C(=O)Nc1cc2c(Nc3ccc(F)c(Cl)c3F)ncnc2cc1OC)C1CCCCC1.Cl` [Example 15, (S)—N-(4-(3-chloro-2,4-difluorophenylamino)-7-methoxyquinazolin-6-yl)-1-((S)-2-cyclohexyl-2-((S)-2-(methylamino)propanamido)acetyl)pyrrolidine-2-carboxamide hydrochloride] the GI50 at 72 h [1] was > 10 µM, the Caspase-3 (caspase 3/7) was “*** (six fold or more)” and the Caspase-9 (caspase 9) was “*** (six fold or more)”. The GI50 at 72 h [2] was > 10 µM and the GI50 [3, 4] was ≤ 0.1 µM.

In the case of `CN[C@@H](C)C(=O)N[C@H](C(=O)N1CCC[C@H]1C(=O)Nc1cc2c(N[C@@H](C)c3ccccc3)ncnc2cc1OC)C(C)(C)C` [Example 34, (S)-1-((S)-3,3-dimethyl-2-((S)-2-(methylamino)propanamido)butanoyl)-N-(7-methoxy-4-((S)-1-phenylmethylamino)quinazolin-6-yl)pyrrolidine-2-carboxamide hydrochloride], the GI50 at 72 h [1] is reported as > 10 µM, the GI50 at 72 h [2] is reported as > 10 µM and the GI50 [3, 4] is reported as ≤ 0.1 µM.

In the case of `CN[C@@H](C)C(=O)N[C@H](C(=O)N1C[C@H](OCc2ccccc2)C[C@H]1C(=O)Nc1cc2c(Nc3ccc(F)c(Cl)c3F)ncnc2cc1OC)C(C)(C)C` [Example 46, (2S,4R)-4-(benzyloxy)-N-(4-(3-chloro-2,4-difluorophenylamino)-7-methoxyquinazolin-6-yl)-1-((S)-3,3-dimethyl-2-((S)-2-(methylamino)propanamido)butanoyl)pyrrolidine-2-carboxamide hydrochloride], the GI50 at 72 h [1] is reported as > 10 µM, the GI50 at 72 h [2] is reported as > 10 µM and the GI50 [3, 4] is reported as ≤ 0.1 µM.
